Pest or weed control data for 29 compounds are collected here from patent US20180186742A1, “PICOLINAMIDES AS FUNGICIDES” (Dow AgroSciences LLC, priority 2017, published 2018).

The test system of one assay is Zymoseptoria tritici. Briefly: Leaf blotch of wheat (SEPTTR), disease control on wheat seedlings. It is filed as in vivo. To be noted: for pest or weed control at 121.5 g/ha: low volume application at 121.5 g/H; for pest or weed control at 100 ppm: high volume application at 100 ppm. Put shortly:
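Z. tritici spores were inoculated onto wheat seedlings (Yuma, first leaf emerged) either before or after treatment. Treatment was an automated spray to run-off of acetone/Triton X-100 water solutions, or a track spray of EC formulations with 0.1% Trycol 5941. Plants were held in dew chambers at 20 °C and then a greenhouse at 20 °C. First-leaf severity (0–100%) was converted to percent control against untreated plants.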

The next assay relates to Puccinia triticina. Put plainly: Wheat brown rust (PUCCRT), disease control on wheat seedlings. In kind it is in vivo. To be noted: for pest or weed control at 121.5 g/ha: low volume application at 121.5 g/H; for pest or weed control at 100 ppm: high volume application at 100 ppm. In outline: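 Compounds in acetone, diluted with nine volumes of water containing 110 ppm Triton X-100, sprayed to run-off on first-leaf Yuma wheat seedlings; track-spray tests used EC formulations with 0.1% Trycol 5941. Puccinia triticina spores applied before or after treatment. Overnight dark dew room at 22° C, 100% humidity, then greenhouse at 24° C.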

[1] abbreviates: 24 h, 1 Day Protectant, read-out: SEPTTR disease control, 1DP, LV activity.
Where [2] appears, read: 24 h, 1 Day Protectant, read-out: PUCCRT disease control, 1DP, LV activity.
Setting [3] is: 72 h, 3 Day Curative, read-out: PUCCRT disease control, 3DC, LV activity.
Where [4] appears, read: 72 h, 3 Day Curative, read-out: SEPTTR disease control, 3DC, LV activity.
Where [5] appears, read: 24 h, 1 Day Protectant, read-out: SEPTTR disease control, 1DP, HV activity.
Where [6] appears, read: 72 h, 3 Day Curative, read-out: SEPTTR disease control, 3DC, HV activity.
The mark [7] stands for this setting: 24 h, 1 Day Protectant, read-out: PUCCRT disease control, 1DP, HV activity.
The mark [8] stands for this setting: 72 h, 3 Day Curative, read-out: PUCCRT disease control, 3DC, HV activity.

Read-outs that look alike come from different tables or passages of the source.

As to `COc1ccc([C@H](C(C)C)[C@H](C)OC(=O)[C@H](C)NC(=O)c2nccc(OC)c2OC(C)=O)cc1F` [Compound 252], the pest or weed control at 121.5 g/ha in the assay with Zymoseptoria tritici (setting [1]) was less than 80%; in the assay on Puccinia triticina (setting [2]) it was more than 80%; with Puccinia triticina (setting [3]), less than 80%.
With `COc1cc(C)ccc1[C@H](C(C)C)[C@H](C)OC(=O)[C@H](C)NC(=O)c1nccc(OC)c1OC(C)=O` [Compound 253], the pest or weed control at 121.5 g/ha in the assay on Zymoseptoria tritici (setting [1]) was less than 80%; with Puccinia triticina (setting [2]) it was more than 80%; with Puccinia triticina (setting [3]), more than 80%.
As to `COc1ccc([C@H](C(C)C)[C@H](C)OC(=O)[C@H](C)NC(=O)c2nccc(OC)c2OC(C)=O)c(C)c1` [Compound 254], the pest or weed control at 121.5 g/ha in the assay on Zymoseptoria tritici (setting [1]), with Puccinia triticina (setting [2]) and in the assay on Puccinia triticina (setting [3]) was more than 80% in each case.
As to `COc1ccnc(C(=O)N[C@@H](C)C(=O)O[C@@H](C)[C@H](c2ccc(C)cc2)C(C)C)c1OCOC(C)=O` [Compound 255], the figures for the pest or weed control at 121.5 g/ha in the assay on Zymoseptoria tritici (setting [1]), in the assay with Puccinia triticina (setting [2]) and with Puccinia triticina (setting [3]) were less than 80%, more than 80% and more than 80%, respectively.
Turning to `COc1ccnc(C(=O)N[C@@H](C)C(=O)O[C@@H](C)[C@H](c2ccc(F)c(C)c2)C(C)C)c1OCOC(C)=O` [Compound 256], the pest or weed control at 121.5 g/ha with Zymoseptoria tritici (setting [1]), in the assay with Puccinia triticina (setting [2]) and in the assay on Puccinia triticina (setting [3]) was more than 80% each time.
`COc1ccc([C@H](C(C)C)[C@H](C)OC(=O)[C@H](C)NC(=O)c2nccc(OC)c2OCOC(C)=O)c(F)c1` [Compound 257]: the pest or weed control at 121.5 g/ha in the assay with Zymoseptoria tritici (setting [1]), in the assay with Puccinia triticina (setting [2]) and in the assay with Puccinia triticina (setting [3]) was more than 80% each time.
With `COc1ccc([C@H](C(C)C)[C@H](C)OC(=O)[C@H](C)NC(=O)c2nccc(OC)c2OCOC(C)=O)cc1F` [Compound 258], the values for the pest or weed control at 121.5 g/ha in the assay with Zymoseptoria tritici (setting [1]), with Puccinia triticina (setting [2]) and with Puccinia triticina (setting [3]) were less than 80%, more than 80% and less than 80%, respectively.
As to `COc1cc(C)ccc1[C@H](C(C)C)[C@H](C)OC(=O)[C@H](C)NC(=O)c1nccc(OC)c1OCOC(C)=O` [Compound 259], the pest or weed control at 121.5 g/ha in the assay on Zymoseptoria tritici (setting [1]) was less than 80%; in the assay on Puccinia triticina (setting [2]), more than 80%; in the assay with Puccinia triticina (setting [3]), more than 80%.
Consider `COc1ccc([C@H](C(C)C)[C@H](C)OC(=O)[C@H](C)NC(=O)c2nccc(OC)c2OCOC(C)=O)c(C)c1` [Compound 260], for which the pest or weed control at 121.5 g/ha in the assay on Zymoseptoria tritici (setting [1]), with Puccinia triticina (setting [2]) and in the assay on Puccinia triticina (setting [3]) was more than 80% throughout.
Turning to `COc1ccccc1[C@H](C(C)C)[C@H](C)OC(=O)[C@H](C)NC(=O)c1nccc(OC)c1OC(C)=O` [Compound 261], the pest or weed control at 121.5 g/ha in the assay on Zymoseptoria tritici (setting [1]) was less than 80%; in the assay on Zymoseptoria tritici (setting [4]), less than 80%; in the assay on Puccinia triticina (setting [2]), more than 80%; in the assay on Puccinia triticina (setting [3]), less than 80%.
With `COc1ccc([C@H](C(C)C)[C@H](C)OC(=O)[C@H](C)NC(=O)c2nccc(OC)c2OC(C)=O)c(OC)c1` [Compound 262], the pest or weed control at 121.5 g/ha in the assay with Zymoseptoria tritici (setting [1]) was less than 80%; in the assay with Zymoseptoria tritici (setting [4]), less than 80%; in the assay with Puccinia triticina (setting [2]), more than 80%; with Puccinia triticina (setting [3]), less than 80%.
As to `COc1ccccc1[C@H](C(C)C)[C@H](C)OC(=O)[C@H](C)NC(=O)c1nccc(OC)c1OCOC(C)=O` [Compound 263], the pest or weed control at 121.5 g/ha in the assay with Zymoseptoria tritici (setting [1]) is less than 80%; with Zymoseptoria tritici (setting [4]) it was more than 80%; with Puccinia triticina (setting [2]), more than 80%; with Puccinia triticina (setting [3]) it was more than 80%.
Turning to `COc1ccc([C@H](C(C)C)[C@H](C)OC(=O)[C@H](C)NC(=O)c2nccc(OC)c2OCOC(C)=O)c(OC)c1` [Compound 264], the pest or weed control at 121.5 g/ha with Zymoseptoria tritici (setting [1]) is less than 80%; with Zymoseptoria tritici (setting [4]), less than 80%; in the assay with Puccinia triticina (setting [2]), more than 80%; in the assay on Puccinia triticina (setting [3]) it was more than 80%.
`COc1ccnc(C(=O)NCC(=O)O[C@@H](C)[C@H](c2ccc(F)cc2C)C(C)C)c1O` [Compound 317]: the pest or weed control at 100 ppm was less than 80% with Zymoseptoria tritici (setting [5]), less than 80% with Zymoseptoria tritici (setting [6]), more than 80% in the assay with Puccinia triticina (setting [7]) and more than 80% in the assay with Puccinia triticina (setting [8]).
On to `COc1ccnc(C(=O)N[C@H](C(=O)O[C@@H](C)[C@H](c2ccc(F)cc2C)C(C)C)C(C)C)c1O` [Compound 318], for which the pest or weed control at 100 ppm is less than 80% with Zymoseptoria tritici (setting [5]), less than 80% in the assay on Zymoseptoria tritici (setting [6]), more than 80% in the assay with Puccinia triticina (setting [7]) and more than 80% in the assay on Puccinia triticina (setting [8]).
As for `CC[C@H](C)[C@H](NC(=O)c1nccc(OC)c1O)C(=O)O[C@@H](C)[C@H](c1ccc(F)cc1C)C(C)C` [Compound 319], the pest or weed control at 100 ppm in the assay with Zymoseptoria tritici (setting [5]), with Zymoseptoria tritici (setting [6]), in the assay with Puccinia triticina (setting [7]) and in the assay with Puccinia triticina (setting [8]) was less than 80% in each case.
Take `COc1ccnc(C(=O)N[C@@H](CC(C)C)C(=O)O[C@@H](C)[C@H](c2ccc(F)cc2C)C(C)C)c1O` [Compound 320]: the pest or weed control at 100 ppm with Zymoseptoria tritici (setting [5]), in the assay with Zymoseptoria tritici (setting [6]), with Puccinia triticina (setting [7]) and in the assay with Puccinia triticina (setting [8]) was less than 80% in each case.
In the case of `COc1ccnc(C(=O)N[C@@H](C)C(=O)O[C@@H](C)[C@H](c2cc(C)ccc2C)C(C)C)c1O` [Compound 321], the pest or weed control at 100 ppm in the assay on Zymoseptoria tritici (setting [5]) is less than 80%; in the assay on Zymoseptoria tritici (setting [6]) it was less than 80%; in the assay with Puccinia triticina (setting [7]), more than 80%; with Puccinia triticina (setting [8]) it was more than 80%.
As for `COc1ccnc(C(=O)N[C@@H](C)C(=O)O[C@@H](C)[C@H](c2cccc(F)c2C)C(C)C)c1O` [Compound 322], the pest or weed control at 100 ppm in the assay with Zymoseptoria tritici (setting [5]) was less than 80%; with Zymoseptoria tritici (setting [6]), less than 80%; in the assay on Puccinia triticina (setting [7]), more than 80%; in the assay with Puccinia triticina (setting [8]), more than 80%.
Turning to `COc1ccnc(C(=O)N[C@@H](C)C(=O)O[C@@H](C)[C@H](c2ccccc2F)C(C)C)c1O` [Compound 323], the pest or weed control at 100 ppm in the assay on Zymoseptoria tritici (setting [5]) was less than 80%; with Zymoseptoria tritici (setting [6]) it was more than 80%; with Puccinia triticina (setting [7]) it was more than 80%; in the assay on Puccinia triticina (setting [8]), more than 80%.
`COc1ccnc(C(=O)N[C@@H](C)C(=O)O[C@@H](C)[C@H](c2cc(F)ccc2C)C(C)C)c1O` [Compound 324]: the pest or weed control at 100 ppm in the assay on Zymoseptoria tritici (setting [5]) is less than 80%; with Zymoseptoria tritici (setting [6]), less than 80%; with Puccinia triticina (setting [7]), more than 80%; in the assay on Puccinia triticina (setting [8]) it was more than 80%.
With `COc1ccnc(C(=O)N[C@@H](C)C(=O)O[C@@H](C)[C@H](c2ccc(C)cc2C)C(C)C)c1O` [Compound 325], the pest or weed control at 100 ppm in the assay on Zymoseptoria tritici (setting [5]) is more than 80%; with Zymoseptoria tritici (setting [6]), less than 80%; in the assay with Puccinia triticina (setting [7]), more than 80%; in the assay with Puccinia triticina (setting [8]), more than 80%.
Regarding `COc1ccnc(C(=O)N[C@@H](C)C(=O)O[C@@H](C)[C@H](c2cccc(C)c2C)C(C)C)c1O` [Compound 326], the pest or weed control at 100 ppm in the assay on Zymoseptoria tritici (setting [5]) was less than 80%; with Zymoseptoria tritici (setting [6]) it was more than 80%; in the assay on Puccinia triticina (setting [7]), more than 80%; in the assay with Puccinia triticina (setting [8]) it was more than 80%.
Consider `COc1ccnc(C(=O)N[C@@H](C)C(=O)O[C@@H](C)[C@H](c2ccccc2C)C(C)C)c1O` [Compound 327], for which the pest or weed control at 100 ppm was less than 80% in the assay with Zymoseptoria tritici (setting [5]), more than 80% with Zymoseptoria tritici (setting [6]), more than 80% with Puccinia triticina (setting [7]) and more than 80% with Puccinia triticina (setting [8]).
Consider `COc1ccnc(C(=O)N[C@@H](C)C(=O)O[C@@H](C)[C@H](c2ccc(F)cc2F)C(C)C)c1O` [Compound 328], for which the pest or weed control at 100 ppm in the assay with Zymoseptoria tritici (setting [5]), in the assay with Zymoseptoria tritici (setting [6]), in the assay on Puccinia triticina (setting [7]) and in the assay on Puccinia triticina (setting [8]) was more than 80% each time.
For `COc1ccnc(C(=O)N[C@@H](C)C(=O)O[C@@H](C)[C@H](c2ccc(C)cc2F)C(C)C)c1O` [Compound 329], the pest or weed control at 100 ppm in the assay with Zymoseptoria tritici (setting [5]) is less than 80%; with Zymoseptoria tritici (setting [6]), less than 80%; in the assay with Puccinia triticina (setting [7]), more than 80%; in the assay with Puccinia triticina (setting [8]) it was more than 80%.
Turning to `COc1ccnc(C(=O)N[C@@H](C)C(=O)O[C@@H](C)[C@H](c2ccc(Cl)cc2Cl)C(C)C)c1O` [Compound 330], the pest or weed control at 100 ppm in the assay on Zymoseptoria tritici (setting [5]) was less than 80%; in the assay with Zymoseptoria tritici (setting [6]) it was less than 80%; in the assay with Puccinia triticina (setting [7]) it was more than 80%; in the assay with Puccinia triticina (setting [8]), more than 80%.
As to `COc1ccnc(C(=O)N[C@@H](C)C(=O)O[C@@H](C)[C@@H](c2ccc(F)cc2F)C(C)C)c1O` [Compound 331], the pest or weed control at 100 ppm in the assay on Zymoseptoria tritici (setting [5]), with Zymoseptoria tritici (setting [6]), with Puccinia triticina (setting [7]) and in the assay on Puccinia triticina (setting [8]) was less than 80% throughout.
Take `COc1ccnc(C(=O)N[C@@H](C)C(=O)O[C@@H](C)[C@@H](c2ccc(C)cc2F)C(C)C)c1O` [Compound 332]: the pest or weed control at 100 ppm in the assay on Zymoseptoria tritici (setting [5]), with Zymoseptoria tritici (setting [6]), with Puccinia triticina (setting [7]) and in the assay with Puccinia triticina (setting [8]) was less than 80% throughout.
